Assay results taken from the supplement of paper PMC10307832.

What was measured:
Test in all cases: relative viability (nuclei count vs DMSO), 5 days (fraction); higher = more cells survive
Bosutinib = compound: COc1cc(Nc2c(C#N)cnc3cc(OCCCN4CCN(C)CC4)c(OC)cc23)c(Cl)cc1Cl [Bosutinib]
In short: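 In 1536-well plates, lung cancer cell lines rested overnight at 37 °C before five library-drug doses (not always all listed), √10 apart, were pinned onto vehicle-anchored plates. Nuclei were counted with MetaXpress from 4× Hoechst images taken after 5 days without medium change. Viability compares treated-well with vehicle-well nuclei as a median over plates, and plates needed control CV below 25% plus at least one doubling to pass.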

Bosutinib + Navitoclax = compound: COc1cc(Nc2c(C#N)cnc3cc(OCCCN4CCN(C)CC4)c(OC)cc23)c(Cl)cc1Cl [Bosutinib] + CC1(C)CCC(c2ccc(Cl)cc2)=C(CN2CCN(c3ccc(C(=O)NS(=O)(=O)c4ccc(N[C@H](CCN5CCOCC5)CSc5ccccc5)c(S(=O)(=O)C(F)(F)F)c4)cc3)CC2)C1 [Navitoclax] (partner 0.5 µM)
In short: (§1)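 Lung cancer cell lines, seeded in 1536-well plates, were treated the following day by pin tool with a single drug or with five library-drug doses (not always all listed) in √10 steps on top of a fixed anchor-drug dose. Cells were fixed and nuclei stained in one step after 5 days, and nuclei were counted. Relative viability is the nuclei count for treated wells divided by that for vehicle wells, reported as medians of duplicate plates.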

Bosutinib + Lapatinib = compound: COc1cc(Nc2c(C#N)cnc3cc(OCCCN4CCN(C)CC4)c(OC)cc23)c(Cl)cc1Cl [Bosutinib] + CS(=O)(=O)CCNCc1ccc(-c2ccc3ncnc(Nc4ccc(OCc5cccc(F)c5)c(Cl)c4)c3c2)o1 [Lapatinib] (partner 2 µM)
In short: as §1

Bosutinib + Dasatinib = compound: COc1cc(Nc2c(C#N)cnc3cc(OCCCN4CCN(C)CC4)c(OC)cc23)c(Cl)cc1Cl [Bosutinib] + Cc1nc(Nc2ncc(C(=O)Nc3c(C)cccc3Cl)s2)cc(N2CCN(CCO)CC2)n1 [Dasatinib] (partner 0.075 µM)
In short: as §1

Bosutinib + Vorinostat = compound: COc1cc(Nc2c(C#N)cnc3cc(OCCCN4CCN(C)CC4)c(OC)cc23)c(Cl)cc1Cl [Bosutinib] + O=C(CCCCCCC(=O)Nc1ccccc1)NO [Vorinostat] (partner 1 µM)
In short: as §1

Row | Cell Line | relative viability (Bosutinib; 0.01 µM) | relative viability (Bosutinib; 0.03162 µM) | relative viability (Bosutinib; 0.1 µM) | relative viability (Bosutinib; 1 µM) | relative viability (Bosutinib + Navitoclax; first compound 0.01 µM) | relative viability (Bosutinib + Navitoclax; first compound 0.03162 µM) | relative viability (Bosutinib + Navitoclax; first compound 0.1 µM) | relative viability (Bosutinib + Navitoclax; first compound 1 µM) | relative viability (Bosutinib + Lapatinib; first compound 0.01 µM) | relative viability (Bosutinib + Lapatinib; first compound 0.03162 µM) | relative viability (Bosutinib + Lapatinib; first compound 0.1 µM) | relative viability (Bosutinib + Lapatinib; first compound 1 µM) | relative viability (Bosutinib + Dasatinib; first compound 0.01 µM) | relative viability (Bosutinib + Dasatinib; first compound 0.03162 µM) | relative viability (Bosutinib + Dasatinib; first compound 0.1 µM) | relative viability (Bosutinib + Dasatinib; first compound 1 µM) | relative viability (Bosutinib + Vorinostat; first compound 0.01 µM) | relative viability (Bosutinib + Vorinostat; first compound 0.03162 µM) | relative viability (Bosutinib + Vorinostat; first compound 0.1 µM) | relative viability (Bosutinib + Vorinostat; first compound 1 µM)
1 | NCI-H1944 | 0.965 | 0.92 | 0.913 | 0.888 | 1.06 | 1.08 | 1.04 | 0.956 | 0.834 | 0.803 | 0.865 | 0.736 | 0.216 | 0.2 | 0.209 | 0.208 | 0.608 | 0.577 | 0.572 | 0.569
2 | NCI-H2023 | 1.02 | 0.943 | 0.948 | 0.852 | 1 | 1.01 | 1.03 | 0.92 | 0.967 | 0.819 | 0.787 | 0.793 | 0.683 | 0.599 | 0.65 | 0.583 | 0.617 | 0.661 | 0.767 | 0.396
3 | NCI-H1650 | 1.01 | 0.846 | 0.778 | 0.783 | 1.46 | 1.06 | 1.18 | 0.754 | 0.835 | 0.731 | 0.745 | 0.636 | 0.357 | 0.317 | 0.375 | 0.457 | 0.717 | 0.623 | 0.529 | 0.41
4 | NCI-H1395 | 0.932 | 0.914 | 1.01 | 0.817 | 1.45 | 1.01 | 1.34 | 1.12 | 1.26 | 1.06 | 0.914 | 1.08 | 0.414 | 0.429 | 0.405 | 0.436 | 0.802 | 0.827 | 0.862 | 0.787
5 | NCI-H2087 | 1.07 | 1.04 | 0.951 | 1.08 | 0.905 | 0.926 | 0.972 | 1.04 | 0.956 | 1.07 | 1.1 | 1.09 | 0.871 | 0.848 | 0.913 | 0.848 | 0.777 | 0.5 | 0.647 | 0.697
6 | NCI-H838 | 0.975 | 0.942 | 0.953 | 0.693 | 1.14 | 1.14 | 1.07 | 0.637 | 1.18 | 0.94 | 0.922 | 0.604 | 0.325 | 0.302 | 0.334 | 0.332 | 0.741 | 0.766 | 0.755 | 0.746
7 | NCI-H1793 | 0.916 | 0.84 | 0.791 | 0.588 | 0.466 | 0.479 | 0.456 | 0.263 | 0.864 | 0.839 | 0.438 | 0.497 | 0.465 | 0.392 | 0.391 | 0.347 | 0.718 | 0.75 | 0.877 | 0.504
8 | LC-2-ad | 0.961 | 1.08 | 1.06 | 1 | 0.476 | 0.54 | 0.52 | 0.468 | 0.99 | 0.92 | 1.05 | 1.01 | 0.678 | 0.701 | 0.659 | 0.906 | 0.735 | 0.659 | 0.673 | 0.71
9 | HCC-78 | 0.906 | 1.2 | 1.08 | 0.902 | 0.798 | 0.737 | 0.752 | 0.661 | 0.468 | 0.798 | 0.817 | 0.7 | 0.356 | 0.478 | 0.46 | 0.373 | 0.469 | 0.362 | 0.444 | 0.356
10 | LOU-NH91 | 0.941 | 0.999 | 0.971 | 0.779 | 0.755 | 0.713 | 0.666 | 0.391 | 0.759 | 0.824 | 0.791 | 0.723 | 0.578 | 0.577 | 0.547 | 0.556 | 0.903 | 0.922 | 0.92 | 0.819
11 | NCI-H1734 | 1.06 | 1.01 | 0.965 | 0.892 | 0.808 | 0.827 | 0.853 | 0.737 | 1.17 | 1.07 | 0.977 | 1.06 | 0.523 | 0.508 | 0.512 | 0.46 | 0.836 | 0.86 | 0.855 | 0.654
12 | NCI-H520 | 1.02 | 1.11 | 0.953 | 0.775 | 1.33 | 0.988 | 1.05 | 0.964 | 1.01 | 0.86 | 0.855 | 0.639 | 0.226 | 0.232 | 0.199 | 0.22 | 0.729 | 0.735 | 0.724 | 0.708
13 | UMC-11 | 1 | 1.01 | 0.956 | 0.912 | 0.256 | 0.316 | 0.333 | 0.33 | 1.1 | 1.03 | 1.03 | 0.821 | 0.409 | 0.454 | 0.456 | 0.455 | 0.354 | 0.383 | 0.43 | 0.364
14 | NCI-H596 | 1.11 | 1.03 | 0.984 | 0.863 | 1.06 | 0.86 | 1.18 | 0.785 | 1.07 | 0.991 | 1.07 | 1.1 | 0.595 | 0.721 | 0.704 | 0.637 | 0.685 | 0.557 | 0.509 | 0.573
15 | NCI-H1755 | 1.01 | 1.09 | 1.03 | 0.951 | 0.971 | 1.02 | 1.04 | 0.925 | 1.03 | 1.11 | 1.06 | 0.915 | 0.427 | 0.476 | 0.438 | 0.433 | 0.809 | 0.919 | 0.904 | 0.731
16 | SK-LU-1 | 0.995 | 1.06 | 1.05 | 0.629 | 0.714 | 0.929 | 0.779 | 0.739 | 0.808 | 0.919 | 1 | 0.586 | 0.221 | 0.174 | 0.186 | 0.255 | 0.848 | 0.768 | 0.844 | 0.632
17 | NCI-H647 | 1.07 | 0.933 | 0.928 | 0.627 | 1.25 | 1.23 | 1.09 | 0.82 | 1.06 | 1.16 | 1.09 | 0.53 | 0.22 | 0.219 | 0.222 | 0.174 | 0.584 | 0.568 | 0.667 | 0.642
18 | SW 1573 | 1.05 | 1.02 | 0.941 | 0.924 | 0.996 | 0.998 | 0.979 | 0.919 | 1.32 | 1.08 | 1.14 | 0.935 | 0.459 | 0.553 | 0.505 | 0.583 | 0.89 | 0.843 | 0.593 | 0.788
19 | HCC-15 | 1.05 | 1.03 | 1.06 | 0.926 | 0.707 | 0.715 | 0.741 | 0.689 | 0.901 | 0.858 | 0.829 | 0.812 | 0.651 | 0.662 | 0.678 | 0.674 | 0.759 | 0.893 | 0.893 | 0.772
20 | NCI-H2126 | 0.972 | 0.997 | 0.969 | 0.994 | 0.797 | 0.904 | 0.85 | 0.776 | 0.742 | 0.718 | 0.724 | 0.701 | 0.583 | 0.571 | 0.594 | 0.62 | 0.71 | 0.799 | 0.858 | 0.722
21 | NCI-H2085 | 0.969 | 0.938 | 0.919 | 0.928 | 1.14 | 1.13 | 1.11 | 1.2 | 0.749 | 0.747 | 0.813 | 0.744 | 0.264 | 0.219 | 0.329 | 0.398 | 0.866 | 0.769 | 0.788 | 0.705
22 | BEN | 0.952 | 0.984 | 1.08 | 0.765 | 0.0464 | 0.0561 | 0.0932 | 0.0522 | 0.619 | 0.699 | 0.785 | 0.52 | 0.315 | 0.339 | 0.344 | 0.368 | 0.557 | 0.56 | 0.654 | 0.514
23 | PC-14 | 1.03 | 0.977 | 0.871 | 0.336 | 0.967 | 0.975 | 1.02 | 0.474 | 0.35 | 0.309 | 0.298 | 0.227 | 0.282 | 0.239 | 0.238 | 0.0662 | 0.783 | 0.694 | 0.673 | 0.126
24 | NCI-H2228 | 0.906 | 0.918 | 0.989 | 0.882 | 0.84 | – | 1.03 | 0.732 | 1.19 | – | 1.18 | 1.04 | 0.494 | 0.474 | 0.56 | 0.62 | 0.664 | 0.442 | 0.605 | 0.552
25 | COR-L23 | 1.05 | 0.972 | 1.07 | 1.03 | 1.17 | 1.06 | 0.959 | 1.06 | 1.01 | 0.892 | 1.04 | 1.08 | 0.551 | 0.537 | 0.501 | 0.619 | 0.535 | 0.553 | 0.431 | 0.561
26 | NCI-H1915 | 0.989 | 1.09 | 1.1 | 1.01 | 0.802 | 0.824 | 0.823 | 0.81 | 0.919 | 0.965 | 0.991 | 1.06 | 0.323 | 0.323 | 0.33 | 0.297 | 0.509 | 0.531 | 0.578 | 0.571
